The numbers were not newly measured in patent publication US20260027339A1, “FLEXIBLE IMPLANTABLE DEPOTS FOR CONTROLLED DRUG RELEASE” (Foundry Therapeutics, Inc., priority 2023, published 2026), which cites them from elsewhere.

Like-named read-outs stand apart in the source and are kept apart here.

The conditions of series [1]: at 25° C.
Series [2] has as its system rats.

For `CCOC(=O)c1ccccc1C(=O)OCC` [diethyl phthalate], in series [1], the vapor pressure is 0.28 Pa. As to `OCc1ccccc1` [benzyl alcohol], the vapor pressure in series [1] was 12.53. For the molecule `CCCCN1CCCCC1C(=O)Nc1c(C)cccc1C` (stereo not drawn) [bupivacaine], the results for the LD50 in series [2] (intravenous) and in series [2] (subcutaneous) were 6 mg/kg and 43 mg/kg, respectively.

Regarding `O=C(OCc1ccccc1)c1ccccc1` [benzyl benzoate], in series [1], the vapor pressure is on record as 0.03 Pa. For `CC(=O)OCC(COC(C)=O)OC(C)=O` [triacetin], the vapor pressure in series [1] is on record as 0.33 Pa.
